The source of these data is patent publication US20080176936A1, “Classes of Compounds that Interact with Integrins” (priority 2005, published 2008).

In one experiment the target is T1, αllbβ3 integrin (Homo sapiens, UniProt P05106+P08514).
T1 construct: Human platelet membrane preparations were used as a source of αllbβ3 integrin; from tissue; host or cells: human platelets (membrane preparation)
Nature of the experiment: ELISA: inhibition of binding of αllbβ3 integrin membrane preparation to coated extracellular matrix protein. To be noted: human platelet membrane preparation. As to the method:
(§1) An ELISA assay based on the published method of Bethert et al., 2000, J Biol Chem 275, 33308-23, was employed.
(§2) Briefly, appropriate microtitre plates were coated with either Fibrinogen or Vitronectin (10 μg/well). These extracellular matrix proteins contain the RGD amino acid sequence that is recognized by αllbβ3 integrin. Human platelet membrane preparations were used as a source of αllbβ3 integrin and the cell line WM-115 was used as a source of αVβ3 integrin. Inhibition of the binding of αllbβ3 integrin containing membrane preparations to the extracellular matrix protein was determined by pre-incubating the platelet membrane preparation with test or control compounds. The binding of the αllbβ3 integrin containing membrane was the quantitated by using a rabbit anti-integrinβ3 antibody, a horse radish peroxidase coupled second antibody and a standard colorimetric detection system.
(In general: An ELISA detects its analyte on a solid surface through an enzyme-linked reagent.)

The next experiment addresses T2, αVβ3 integrin (Homo sapiens, UniProt P05106+P06756).
T2 construct: the cell line WM-115 was used as a source of αVβ3 integrin; endogenous in cells; host or cells: WM-115 cell line
In words: ELISA: inhibition of binding of αVβ3 integrin (source WM-115 cell line) to coated extracellular matrix protein. The following applies: WM-115 cell line as integrin source. As to the method: as §1, §2

Molecules are shown by their SMILES.

T2 sequence (P06756 31-889 limits assumed): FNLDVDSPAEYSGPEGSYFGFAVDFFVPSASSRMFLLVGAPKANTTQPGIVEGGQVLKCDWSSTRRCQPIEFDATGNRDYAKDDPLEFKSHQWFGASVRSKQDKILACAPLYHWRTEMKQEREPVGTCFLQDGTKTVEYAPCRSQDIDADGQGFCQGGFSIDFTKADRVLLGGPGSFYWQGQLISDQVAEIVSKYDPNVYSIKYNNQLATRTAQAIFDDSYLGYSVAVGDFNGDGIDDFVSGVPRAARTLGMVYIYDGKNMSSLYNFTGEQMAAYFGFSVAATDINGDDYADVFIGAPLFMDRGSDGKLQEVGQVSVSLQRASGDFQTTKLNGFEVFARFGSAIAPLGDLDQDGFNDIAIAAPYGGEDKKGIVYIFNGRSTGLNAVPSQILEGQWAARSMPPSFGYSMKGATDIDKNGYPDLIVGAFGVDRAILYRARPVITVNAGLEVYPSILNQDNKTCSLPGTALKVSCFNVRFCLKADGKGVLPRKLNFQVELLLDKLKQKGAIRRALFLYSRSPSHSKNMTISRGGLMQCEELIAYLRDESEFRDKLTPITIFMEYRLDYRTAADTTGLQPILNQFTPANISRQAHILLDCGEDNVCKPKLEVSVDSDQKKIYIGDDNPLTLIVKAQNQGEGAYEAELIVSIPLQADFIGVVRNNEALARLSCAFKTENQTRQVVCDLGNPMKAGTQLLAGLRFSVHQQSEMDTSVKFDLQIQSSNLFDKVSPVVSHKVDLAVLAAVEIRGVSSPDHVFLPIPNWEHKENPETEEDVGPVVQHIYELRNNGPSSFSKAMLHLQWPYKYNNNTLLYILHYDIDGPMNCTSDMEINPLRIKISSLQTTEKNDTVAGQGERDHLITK
T2 sequence (P06756 891-1048 partner limits assumed): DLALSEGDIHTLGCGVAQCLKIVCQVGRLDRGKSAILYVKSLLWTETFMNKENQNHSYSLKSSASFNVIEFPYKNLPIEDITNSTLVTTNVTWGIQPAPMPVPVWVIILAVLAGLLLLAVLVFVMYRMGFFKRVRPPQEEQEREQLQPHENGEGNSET
T2 sequence (P05106 27-788): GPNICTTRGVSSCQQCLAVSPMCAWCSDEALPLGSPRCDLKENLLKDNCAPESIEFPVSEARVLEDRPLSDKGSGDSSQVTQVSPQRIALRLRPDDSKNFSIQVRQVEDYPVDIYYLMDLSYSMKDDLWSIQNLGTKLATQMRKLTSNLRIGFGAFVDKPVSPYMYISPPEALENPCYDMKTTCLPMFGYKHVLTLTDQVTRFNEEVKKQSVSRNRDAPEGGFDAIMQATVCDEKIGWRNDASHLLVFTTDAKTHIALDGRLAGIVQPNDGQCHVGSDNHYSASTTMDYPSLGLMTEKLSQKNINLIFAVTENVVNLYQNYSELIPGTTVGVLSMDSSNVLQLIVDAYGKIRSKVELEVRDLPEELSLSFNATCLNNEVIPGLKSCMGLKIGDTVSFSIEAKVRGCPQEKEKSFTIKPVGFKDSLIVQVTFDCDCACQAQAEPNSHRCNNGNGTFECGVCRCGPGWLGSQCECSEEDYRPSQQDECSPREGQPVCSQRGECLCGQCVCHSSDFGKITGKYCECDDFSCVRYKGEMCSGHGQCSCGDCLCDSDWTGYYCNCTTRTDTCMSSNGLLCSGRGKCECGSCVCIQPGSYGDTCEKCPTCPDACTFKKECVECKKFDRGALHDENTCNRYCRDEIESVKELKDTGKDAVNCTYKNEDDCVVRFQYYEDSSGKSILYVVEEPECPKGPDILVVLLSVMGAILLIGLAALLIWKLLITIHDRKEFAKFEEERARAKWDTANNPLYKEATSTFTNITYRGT
T1 sequence (P08514 32-887 limits assumed): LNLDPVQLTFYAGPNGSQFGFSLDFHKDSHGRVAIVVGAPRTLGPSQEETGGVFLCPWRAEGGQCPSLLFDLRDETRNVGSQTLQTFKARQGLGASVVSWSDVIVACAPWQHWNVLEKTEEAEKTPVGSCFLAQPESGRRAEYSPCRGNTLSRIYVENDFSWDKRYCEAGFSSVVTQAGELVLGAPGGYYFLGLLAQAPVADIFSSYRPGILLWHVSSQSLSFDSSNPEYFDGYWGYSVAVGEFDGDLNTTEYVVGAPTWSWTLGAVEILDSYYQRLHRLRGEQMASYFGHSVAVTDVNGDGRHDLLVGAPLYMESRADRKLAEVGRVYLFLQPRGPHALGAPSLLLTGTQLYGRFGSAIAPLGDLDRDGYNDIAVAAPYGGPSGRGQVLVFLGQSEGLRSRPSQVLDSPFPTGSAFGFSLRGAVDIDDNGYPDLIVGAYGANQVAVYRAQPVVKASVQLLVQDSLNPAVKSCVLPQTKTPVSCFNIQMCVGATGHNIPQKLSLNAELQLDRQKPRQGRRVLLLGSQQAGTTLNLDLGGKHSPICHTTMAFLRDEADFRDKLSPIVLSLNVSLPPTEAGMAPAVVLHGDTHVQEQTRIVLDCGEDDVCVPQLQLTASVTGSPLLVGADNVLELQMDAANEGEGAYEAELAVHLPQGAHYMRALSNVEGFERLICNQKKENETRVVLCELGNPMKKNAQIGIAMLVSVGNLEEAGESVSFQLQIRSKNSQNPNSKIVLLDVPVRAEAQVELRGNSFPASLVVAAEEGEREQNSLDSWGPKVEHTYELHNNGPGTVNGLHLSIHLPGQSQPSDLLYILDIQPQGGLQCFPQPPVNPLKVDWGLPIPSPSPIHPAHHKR
T1 sequence (P08514 891-1039 partner limits assumed): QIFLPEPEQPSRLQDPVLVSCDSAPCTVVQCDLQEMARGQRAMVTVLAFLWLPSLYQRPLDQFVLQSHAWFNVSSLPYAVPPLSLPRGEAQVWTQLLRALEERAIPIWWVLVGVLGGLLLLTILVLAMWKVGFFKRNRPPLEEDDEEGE
T1 sequence (P05106 27-788): as the sequence (P05106 27-788) above

As to `CCOC1OC(COCc2cccc(N)c2)C(O)C(OCc2ccc(C(=O)O)cc2)C1NC(=O)c1ccc(Cl)cc1` (single isomer, unassigned) [Compound 64], at αllbβ3 integrin, the “INHIBITION @ 250 uM RECEPTOR allBb3 SUBSTRATE FIBRINOGEN” value is listed as “− (0% to 35% inhibition at 250 micromolar)” and the “INHIBITION 250 uM RECEPTOR allBb3 SUBSTRATE VITRONECTIN” value is “++ (61% to 80% inhibition at 250 micromolar)”. For the same compound, the “INHIBITION 250 uM RECEPTOR aVb3 SUBSTRATE FIBRINOGEN” value on αVβ3 integrin was “+ (36% to 60% inhibition at 250 micromolar)”.
The matching figures for `Nc1cccc(COC[C@H]2OC[C@H](NC(=O)c3ccccc3)[C@@H](OCC(=O)O)[C@@H]2O)c1` [Compound 56]: “− (0% to 35% inhibition at 250 micromolar)”, “+++ (81% to 100% inhibition at 250 micromolar)” and “++ (61% to 80% inhibition at 250 micromolar)”.
The matching figures for `COCC1OC(OCc2ccccc2)C(NC(=O)c2ccc(C(=O)O)cc2)C(OCc2cccc(N)c2)C1O` (single isomer, unassigned) [Compound 105]: “+++ (81% to 100% inhibition at 250 micromolar)”, “++ (61% to 80% inhibition at 250 micromolar)” and “− (0% to 35% inhibition at 250 micromolar)”.
The matching figures for `CCOC1O[C@H](COCC(=O)O)[C@@H](O)[C@H](OCc2ccc(Br)cc2)[C@H]1NC(=O)c1cccc(N)c1` (single isomer, unassigned) [Compound 39]: “+ (36% to 60% inhibition at 250 micromolar)”, “+++ (81% to 100% inhibition at 250 micromolar)” and “+++ (81% to 100% inhibition at 250 micromolar)”.
Consider `CCOC1C(O)C(COCC(=O)O)OC(OCc2ccccc2)C1NC(=O)c1cccc(N)c1` (single isomer, unassigned) [Compound 85], for which, on αllbβ3 integrin, the “INHIBITION @ 250 uM RECEPTOR allBb3 SUBSTRATE FIBRINOGEN” value was “− (0% to 35% inhibition at 250 micromolar)” and the “INHIBITION 250 uM RECEPTOR allBb3 SUBSTRATE VITRONECTIN” value is recorded as “+++ (81% to 100% inhibition at 250 micromolar)”. The “INHIBITION 250 uM RECEPTOR aVb3 SUBSTRATE FIBRINOGEN” value at αVβ3 integrin is “− (0% to 35% inhibition at 250 micromolar)”.
Take `COC(=O)c1ccc(COC2C(O)C(COCc3ccc(Br)cc3)OC(OC)C2NC(=O)CCNC(=N)N)cc1` (single isomer, unassigned) [Compound 17]: at αllbβ3 integrin, the “INHIBITION @ 250 uM RECEPTOR allBb3 SUBSTRATE FIBRINOGEN” value is “+ (36% to 60% inhibition at 250 micromolar)” and the “INHIBITION 250 uM RECEPTOR allBb3 SUBSTRATE VITRONECTIN” value is “+++ (81% to 100% inhibition at 250 micromolar)”. Besides, the “INHIBITION 250 uM RECEPTOR aVb3 SUBSTRATE FIBRINOGEN” value on αVβ3 integrin is on record as “+++ (81% to 100% inhibition at 250 micromolar)”.
On to `Nc1cccc(C(=O)N[C@H]2C(O)O[C@H](COCc3ccc(C(=O)O)cc3)[C@@H](O)[C@@H]2OCc2ccc(Br)cc2)c1` (single isomer, unassigned) [Compound 42], for which, at αllbβ3 integrin, the “INHIBITION @ 250 uM RECEPTOR allBb3 SUBSTRATE FIBRINOGEN” value is “+ (36% to 60% inhibition at 250 micromolar)” and the “INHIBITION 250 uM RECEPTOR allBb3 SUBSTRATE VITRONECTIN” value is reported as “+++ (81% to 100% inhibition at 250 micromolar)”. For the same compound, the “INHIBITION 250 uM RECEPTOR aVb3 SUBSTRATE FIBRINOGEN” value on αVβ3 integrin is on record as “− (0% to 35% inhibition at 250 micromolar)”.
As to `CCOC1O[C@H](COCc2ccccc2)[C@@H](O)[C@H](OCC(=O)O)[C@H]1NC(=O)CCNC(=N)N` (single isomer, unassigned) [Compound 48], on αllbβ3 integrin, the “INHIBITION @ 250 uM RECEPTOR allBb3 SUBSTRATE FIBRINOGEN” value is “++ (61% to 80% inhibition at 250 micromolar)” and the “INHIBITION 250 uM RECEPTOR allBb3 SUBSTRATE VITRONECTIN” value is “+++ (81% to 100% inhibition at 250 micromolar)”. Further, at αVβ3 integrin, the “INHIBITION 250 uM RECEPTOR aVb3 SUBSTRATE FIBRINOGEN” value is “+++ (81% to 100% inhibition at 250 micromolar)”.
`CCOC1O[C@H](COCc2ccccc2)[C@@H](O)[C@H](OCC(=O)O)[C@H]1NC(=O)CCNC(=N)N` (single isomer, unassigned) [Compound 49]: at αllbβ3 integrin, the “INHIBITION @ 250 uM RECEPTOR allBb3 SUBSTRATE FIBRINOGEN” value is “++ (61% to 80% inhibition at 250 micromolar)” and the “INHIBITION 250 uM RECEPTOR allBb3 SUBSTRATE VITRONECTIN” value is given as “+++ (81% to 100% inhibition at 250 micromolar)”. Further, at αVβ3 integrin, the “INHIBITION 250 uM RECEPTOR aVb3 SUBSTRATE FIBRINOGEN” value is given as “+++ (81% to 100% inhibition at 250 micromolar)”.
As to `COC1OC(COCc2ccc(Br)cc2)C(O)C(OCc2ccc(C(=O)O)cc2)C1NC(=O)CCNC(=N)N` (single isomer, unassigned) [Compound 15], on αllbβ3 integrin, the “INHIBITION @ 250 uM RECEPTOR allBb3 SUBSTRATE FIBRINOGEN” value is on record as “+ (36% to 60% inhibition at 250 micromolar)” and the “INHIBITION 250 uM RECEPTOR allBb3 SUBSTRATE VITRONECTIN” value is on record as “+++ (81% to 100% inhibition at 250 micromolar)”. Also, the “INHIBITION 250 uM RECEPTOR aVb3 SUBSTRATE FIBRINOGEN” value at αVβ3 integrin is listed as “++ (61% to 80% inhibition at 250 micromolar)”.
